The values that follow are results of earlier work, collected in article PMC2788793 (Molecular immunology, 2008).

In this series the target is mouse H2-Kb molecule (Mus musculus, UniProt P01901). The settings on record: ref Apostolopoulos et al., 2003.
mouse H2-Kb molecule, sequence (P01901 whole entry, looked up): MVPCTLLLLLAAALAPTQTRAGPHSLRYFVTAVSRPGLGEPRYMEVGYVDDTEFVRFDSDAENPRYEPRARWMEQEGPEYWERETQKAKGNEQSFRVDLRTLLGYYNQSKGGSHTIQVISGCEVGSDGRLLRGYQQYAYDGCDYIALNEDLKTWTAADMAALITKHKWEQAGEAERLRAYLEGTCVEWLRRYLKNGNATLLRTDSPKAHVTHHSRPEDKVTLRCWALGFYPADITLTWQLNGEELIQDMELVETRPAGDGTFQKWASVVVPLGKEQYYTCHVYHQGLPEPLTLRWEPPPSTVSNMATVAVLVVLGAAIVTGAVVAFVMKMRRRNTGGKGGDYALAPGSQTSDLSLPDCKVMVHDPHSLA

For the substance SAPDT(GalNAc-Gal)RPA, the “Binding to mouse H2-Kb molecule” value is “completely abolished its binding”.
